# According to patent US4492693A, “Benzothienylglycyl cephalosporin derivatives” (priority 1983, dated 1985):
# Read-outs that look alike come from different tables or passages of the source.
# Key:
# Type in all cases: cell-based
# Staph. epi [1] = experiment: Agar Dilution MIC (Table I); conditions: read-out: Agar Dilution MIC
# Strep. D = experiment: Agar Dilution MIC (Table I); conditions: for MIC: read-out: Agar Dilution MIC
# Excerpt: (§1) A typical and preferred compound provided by this invention is 7-(3-benzothienyl)glycylamido-3-methyl-3-cephem-4-carboxylic acid, the compound illustrated in Example 9. The antibacterial activity of this compound has been determined in standard in vitro agar dilution assays against a variety of gram positive and gram negative microorganism. The following Tables present typical minimum inhibitory concentrations (MIC's) in μg/ml for several compounds of the invention when evaluated against the indicated microorganisms. MIC's for several known compounds are also presented for comparison.
# Agar Dilution MIC (μg/ml)
# H. influ. = experiment: Agar Dilution MIC (Table I); conditions: read-out: Agar Dilution MIC
# Staph. aureus [2] = experiment: Agar Dilution MIC (Table I); conditions: Staphylococcus aureus
# Strep. A = experiment: Agar Dilution MIC (Table I); conditions: strain C203; read-out: Agar Dilution MIC
# E. coli = experiment: Agar Dilution MIC (Table I); conditions: Escherichia coli
# Bacteroides corrodens = experiment: Susceptibility of Anaerobic Bacteroides Isolates by the Agar-Dilution Method (Table III); conditions: Eikenella corrodens; strain 1874; readings 24 hrs. after incubation
# Excerpt: as §1
# (§2) Susceptibility of Anaerobic Bacteroides Isolates by the
# (§3) Agar-Dilution Method MIC (μg/ml) readings 24 hrs. after incubation
# Bacteroides fragilis = experiment: as above; conditions: 24 h
# Excerpt: as §1, §2, §3
# [3] = test system: Bacteroides thetaiotaomicron; experiment: as above; conditions: 24 h
# Excerpt: as §1, §2, §3
# Klebsiella = experiment: Agar Dilution MIC (Table I); conditions: for MIC: Klebsiella, read-out: Agar Dilution MIC
# Strep. PN = experiment: Agar Dilution MIC (Table I); conditions: strain PARK
# H. influenzae = experiment: Expanded Spectrum MIC (Table II); conditions: Haemophilus influenzae
# Excerpt: as §1
# (§4) Expanded Spectrum MIC (μg/ml)
# Staph. aureus [4] = experiment: Expanded Spectrum MIC (Table II); conditions: Staphylococcus aureus
# Excerpt: as §1, §4
# Staph. epi [5] = experiment: Expanded Spectrum MIC (Table II)
# Excerpt: as §1, §4
# [6] = strain V41, read-out: Agar Dilution MIC
# [7] = strain X1.1, read-out: Agar Dilution MIC
# [8] = strain X400, read-out: Agar Dilution MIC
# [9] = strain 9, readings 24 hrs. after incubation
# [10] = strain 103, readings 24 hrs. after incubation
# [11] = strain 104, readings 24 hrs. after incubation
# [12] = strain 106, readings 24 hrs. after incubation
# [13] = strain 107, readings 24 hrs. after incubation
# [14] = strain 108, readings 24 hrs. after incubation
# [15] = strain 110, readings 24 hrs. after incubation
# [16] = strain 111, readings 24 hrs. after incubation
# [17] = strain 1877, readings 24 hrs. after incubation
# [18] = strain 1438, readings 24 hrs. after incubation
# [19] = strain 1900A, readings 24 hrs. after incubation
structure (smiles),measurement,setting,value
"CC1=C(C(=O)O)N2C(=O)C(NC(=O)[C@H](N)c3csc4c(F)cccc34)C2SC1 (stereo partly drawn) [Ex. 20, D-7-(7-Fluoro-3-benzothienyl)glycylamido-3-methyl-3-cephem-4-carboxylic acid]",MIC,Staph. epi [1]; strain 222,2 µg/mL
same,MIC,Staph. epi [1]; strain EPI1,4 µg/mL
same,MIC,Strep. D,128 µg/mL
same,Agar Dilution MIC,Strep. D; strain 2041,128 µg/mL
same,MIC,H. influ.; strain 76,0.5 µg/mL
same,MIC,H. influ.; strain C.L.,4 µg/mL
same,MIC,"Staph. aureus [2]; read-out: Agar Dilution MIC, strain S13E",8 µg/mL
same,MIC,Staph. aureus [2]; [6],16 µg/mL
same,MIC,Staph. aureus [2]; [7],0.5 µg/mL
same,MIC,Staph. aureus [2]; [8],128 µg/mL
same,MIC,Strep. A,0.125 µg/mL
same,MIC,E. coli; strain EC14,128 µg/mL
same,MIC,E. coli; strain N10,128 µg/mL
same,MIC,E. coli; strain TEM,128 µg/mL
same,MIC,Bacteroides corrodens,64 µg/mL
same,MIC,Bacteroides fragilis; [9],16 µg/mL
same,MIC,Bacteroides fragilis; [10],64 µg/mL
same,MIC,Bacteroides fragilis; [11],8 µg/mL
same,MIC,Bacteroides fragilis; [12],16 µg/mL
same,MIC,Bacteroides fragilis; [13],32 µg/mL
same,MIC,Bacteroides fragilis; [14],8 µg/mL
same,MIC,Bacteroides fragilis; [15],32 µg/mL
same,MIC,Bacteroides fragilis; [16],128 µg/mL
same,MIC,Bacteroides fragilis; [17],16 µg/mL
same,MIC,[3]; [18],16 µg/mL
same,MIC,[3]; [19],32 µg/mL
same,MIC,Klebsiella,128 µg/mL
same,MIC,Klebsiella; strain X26,4 µg/mL
same,Agar Dilution MIC,Klebsiella; strain X68,128 µg/mL
same,MIC,Strep. PN,0.5 µg/mL
same,MIC,H. influenzae; strain 76,1 µg/mL
same,MIC,H. influenzae; strain 105,2 µg/mL
same,MIC,H. influenzae; strain 158,2 µg/mL
same,MIC,H. influenzae; strain 164,2 µg/mL
same,MIC,H. influenzae; strain 169,4 µg/mL
same,MIC,H. influenzae; strain 171,2 µg/mL
same,MIC,H. influenzae; strain 312,4 µg/mL
same,MIC,H. influenzae; strain 1683,1 µg/mL
same,MIC,H. influenzae; strain 1930,4 µg/mL
same,MIC,H. influenzae; strain 4842,2 µg/mL
same,MIC,H. influenzae; strain C.L.,16 µg/mL
same,MIC,H. influenzae; strain HESS,8 µg/mL
same,MIC,H. influenzae; strain M366,64 µg/mL
same,MIC,H. influenzae; strain M370,2 µg/mL
same,MIC,H. influenzae; strain M371,2 µg/mL
same,MIC,H. influenzae; strain R465,64 µg/mL
same,MIC,H. influenzae; strain STEL,64 µg/mL
same,MIC,Staph. aureus [4]; strain S224,2 µg/mL
same,MIC,Staph. aureus [4]; strain S225,2 µg/mL
same,MIC,Staph. aureus [4]; strain S226,2 µg/mL
same,MIC,Staph. aureus [4]; strain S227,2 µg/mL
same,MIC,Staph. aureus [4]; strain S228,2 µg/mL
same,MIC,Staph. aureus [4]; strain S229,2 µg/mL
same,MIC,Staph. aureus [4]; strain S230,2 µg/mL
same,MIC,Staph. aureus [4]; strain S231,1 µg/mL
same,MIC,Staph. aureus [4]; strain S234,2 µg/mL
same,MIC,Staph. aureus [4]; strain S237,2 µg/mL
same,MIC,Staph. aureus [4]; strain S238,4 µg/mL
same,MIC,Staph. aureus [4]; strain S239,2 µg/mL
same,MIC,Staph. epi [5]; strain 219,2 µg/mL
same,MIC,Staph. epi [5]; strain 269,4 µg/mL
same,MIC,Staph. epi [5]; strain 270,8 µg/mL
same,MIC,Staph. epi [5]; strain 285,4 µg/mL
same,MIC,Staph. epi [5]; strain 286,1 µg/mL
same,MIC,Staph. epi [5]; strain EPI1,16 µg/mL
"CC1=C(C(=O)O)N2C(=O)C(NC(=O)[C@H](N)c3csc4cc(F)ccc34)C2SC1 (stereo partly drawn) [Ex. 17, D-7-(6-Fluoro-3-benzothienyl)glycylamido-3-methyl-3-cephem-4-carboxylic acid]",MIC,Staph. epi [1]; strain 222,2 µg/mL
same,MIC,Staph. epi [1]; strain EPI1,4 µg/mL
same,MIC,Strep. D; strain 2041,64 µg/mL
same,MIC,Strep. D; strain X66,128 µg/mL
same,MIC,H. influ.; strain 76,0.5 µg/mL
same,MIC,H. influ.; strain C.L.,2 µg/mL
same,MIC,Staph. aureus [2]; [6],8 µg/mL
same,MIC,Staph. aureus [2]; [7],1 µg/mL
same,MIC,Staph. aureus [2]; [8],64 µg/mL
same,MIC,Strep. A,0.125 µg/mL
same,MIC,E. coli; strain EC14,64 µg/mL
same,MIC,E. coli; strain N10,128 µg/mL
same,MIC,E. coli; strain TEM,64 µg/mL
same,MIC,Bacteroides corrodens,16 µg/mL
same,MIC,Bacteroides fragilis; [9],4 µg/mL
same,MIC,Bacteroides fragilis; [10],16 µg/mL
same,MIC,Bacteroides fragilis; [11],2 µg/mL
same,MIC,Bacteroides fragilis; [12],4 µg/mL
same,MIC,Bacteroides fragilis; [13],8 µg/mL
same,MIC,Bacteroides fragilis; [14],4 µg/mL
same,MIC,Bacteroides fragilis; [15],4 µg/mL
same,MIC,Bacteroides fragilis; [16],32 µg/mL
same,MIC,Bacteroides fragilis; [17],8 µg/mL
same,MIC,[3]; [18],8 µg/mL
same,MIC,[3]; [19],32 µg/mL
same,MIC,Klebsiella; strain KAE,128 µg/mL
same,MIC,Klebsiella; strain X26,2 µg/mL
same,MIC,Klebsiella; strain X68,128 µg/mL
same,MIC,Strep. PN,0.5 µg/mL
same,MIC,H. influenzae; strain 76,1 µg/mL
same,MIC,H. influenzae; strain 105,0.5 µg/mL
same,MIC,H. influenzae; strain 158,0.5 µg/mL
same,MIC,H. influenzae; strain 164,0.5 µg/mL
same,MIC,H. influenzae; strain 169,1 µg/mL
same,MIC,H. influenzae; strain 171,1 µg/mL
same,MIC,H. influenzae; strain 312,0.5 µg/mL
same,MIC,H. influenzae; strain 1683,0.25 µg/mL
same,MIC,H. influenzae; strain 1930,0.5 µg/mL
same,MIC,H. influenzae; strain 4842,0.5 µg/mL
same,MIC,H. influenzae; strain C.L.,2 µg/mL
same,MIC,H. influenzae; strain HESS,1 µg/mL
same,MIC,H. influenzae; strain M366,64 µg/mL
same,MIC,H. influenzae; strain M370,0.5 µg/mL
same,MIC,H. influenzae; strain M371,0.5 µg/mL
same,MIC,H. influenzae; strain R465,64 µg/mL
same,MIC,H. influenzae; strain STEL,64 µg/mL
same,MIC,Staph. aureus [4]; strain S224,1 µg/mL
same,MIC,Staph. aureus [4]; strain S225,1 µg/mL
same,MIC,Staph. aureus [4]; strain S226,1 µg/mL
same,MIC,Staph. aureus [4]; strain S227,1 µg/mL
same,MIC,Staph. aureus [4]; strain S228,0.5 µg/mL
same,MIC,Staph. aureus [4]; strain S229,1 µg/mL
same,MIC,Staph. aureus [4]; strain S230,1 µg/mL
same,MIC,Staph. aureus [4]; strain S231,0.5 µg/mL
same,MIC,Staph. aureus [4]; strain S234,1 µg/mL
same,MIC,Staph. aureus [4]; strain S237,1 µg/mL
same,MIC,Staph. aureus [4]; strain S238,1 µg/mL
same,MIC,Staph. aureus [4]; strain S239,1 µg/mL
same,MIC,Staph. epi [5]; strain 219,0.5 µg/mL
same,MIC,Staph. epi [5]; strain 269,2 µg/mL
same,MIC,Staph. epi [5]; strain 270,2 µg/mL
same,MIC,Staph. epi [5]; strain 285,1 µg/mL
same,MIC,Staph. epi [5]; strain 286,0.25 µg/mL
same,MIC,Staph. epi [5]; strain EPI1,4 µg/mL
